Source: article PMC5362750, “Discovery of Potent, Selective, and Orally Bioavailable Small-Molecule Modulators of the Mediator Complex-Associated Kinases CDK8 and CDK19” (Journal of Medicinal Chemistry, 2016)

Tests used:
BB3 (h) = target: T1, BB3 (h) (Homo sapiens, UniProt P32247); assay: CEREP binding assay; details: agonist radioligand, read-out: % Inhibition of Control Specific Binding
T1 construct: purchased Millipore (KinaseProfiler) kinase panel

ETB (h) = target: T2, ETB (h) (Homo sapiens, UniProt P24530); assay: CEREP binding assay; details: agonist radioligand, read-out: % Inhibition of Control Specific Binding
T2 construct: purchased Millipore (KinaseProfiler) kinase panel

FP (h) = target: T3, FP (h) (Homo sapiens, UniProt P43088); assay: CEREP binding assay; details: agonist radioligand, read-out: % Inhibition of Control Specific Binding
T3 construct: purchased Millipore (KinaseProfiler) kinase panel

[1] = target: T4, choline transporter (CHT1) (h) (Homo sapiens, UniProt Q9GZV3); assay: CEREP binding assay; details: antagonist radioligand, read-out: % Inhibition of Control Specific Binding
T4 construct: CEREP

EPHA1 = target: T5, EPHA1 (Homo sapiens, UniProt P21709); assay: Kinase panel (Millipore); format: biochemical; details: 1 µM, ATP at Km
T5 construct: purchased Millipore (KinaseProfiler) kinase panel

ALK = target: T6, ALK (Homo sapiens, UniProt Q9UM73); assay: Kinase panel (Millipore); format: biochemical; details: 1 µM, ATP at Km
T6 construct: purchased Millipore (KinaseProfiler) kinase panel

ALK4 = target: T7, ALK4 (Homo sapiens, UniProt P36896); assay: Kinase panel (Millipore); format: biochemical; details: 1 µM, ATP at Km
T7 construct: purchased Millipore (KinaseProfiler) kinase panel

AURKA = AURKA (Homo sapiens, UniProt O14965); assay: Kinase panel (Millipore); format: biochemical; details: 1 µM, ATP at Km
MAPKAP-K2 = target: T8, MAPKAP-K2 (Homo sapiens, UniProt P49137); assay: Kinase panel (Millipore); format: biochemical; details: 1 µM, ATP at Km
T8 construct: purchased Millipore (KinaseProfiler) kinase panel

BRSK1 = target: T9, BRSK1 (Homo sapiens, UniProt Q8TDC3); assay: Kinase panel (Millipore); format: biochemical; details: 1 µM, ATP at Km
T9 construct: purchased Millipore (KinaseProfiler) kinase panel
T9 sequence (Q8TDC3 whole entry): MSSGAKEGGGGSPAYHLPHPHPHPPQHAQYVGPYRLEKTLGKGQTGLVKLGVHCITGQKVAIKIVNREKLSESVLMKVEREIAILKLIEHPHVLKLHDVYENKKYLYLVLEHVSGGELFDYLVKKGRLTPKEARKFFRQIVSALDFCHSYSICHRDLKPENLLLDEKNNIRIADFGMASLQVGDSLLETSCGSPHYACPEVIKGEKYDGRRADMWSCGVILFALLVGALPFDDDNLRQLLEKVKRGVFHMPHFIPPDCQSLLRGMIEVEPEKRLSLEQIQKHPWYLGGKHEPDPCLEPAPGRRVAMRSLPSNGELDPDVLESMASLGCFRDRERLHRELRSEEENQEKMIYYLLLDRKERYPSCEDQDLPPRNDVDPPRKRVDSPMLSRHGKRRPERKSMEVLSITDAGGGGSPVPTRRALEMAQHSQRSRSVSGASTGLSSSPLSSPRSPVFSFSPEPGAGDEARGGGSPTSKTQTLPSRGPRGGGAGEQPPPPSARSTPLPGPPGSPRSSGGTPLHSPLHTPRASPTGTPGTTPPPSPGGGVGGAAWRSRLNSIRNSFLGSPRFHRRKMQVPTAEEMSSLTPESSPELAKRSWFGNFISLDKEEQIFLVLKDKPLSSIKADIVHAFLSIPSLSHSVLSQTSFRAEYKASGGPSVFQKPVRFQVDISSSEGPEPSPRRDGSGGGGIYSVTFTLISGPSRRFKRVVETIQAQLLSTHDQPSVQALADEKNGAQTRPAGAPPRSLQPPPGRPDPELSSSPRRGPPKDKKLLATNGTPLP

MARK1 = MARK1 (Homo sapiens, UniProt Q9P0L2); assay: Kinase panel (Millipore); format: biochemical; details: 1 µM, ATP at Km
FGFR2 = FGFR2 (Homo sapiens, UniProt P21802); assay: Kinase panel (Millipore); format: biochemical; details: 1 µM, ATP at Km
MINK = target: T10, MINK (Homo sapiens, UniProt Q8N4C8); assay: Kinase panel (Millipore); format: biochemical; details: 1 µM, ATP at Km
T10 construct: purchased Millipore (KinaseProfiler) kinase panel

MRCKBETA = target: T11, MRCKBETA (Homo sapiens, UniProt Q9Y5S2); assay: Kinase panel (Millipore); format: biochemical; details: 1 µM, ATP at Km
T11 construct: purchased Millipore (KinaseProfiler) kinase panel

CHK1 = CHK1 (Homo sapiens, UniProt O14757); assay: Kinase panel (Millipore); format: biochemical; details: 1 µM, ATP at Km
HIPK2 = target: T12, HIPK2 (Homo sapiens, UniProt Q9H2X6); assay: Kinase panel (Millipore); format: biochemical; details: 1 µM, ATP at Km
T12 construct: purchased Millipore (KinaseProfiler) kinase panel

IRR = target: T13, IRR (Homo sapiens, UniProt P14616); assay: Kinase panel (Millipore); format: biochemical; details: 1 µM, ATP at Km
T13 construct: purchased Millipore (KinaseProfiler) kinase panel

JAK3 = target: T14, JAK3 (Homo sapiens, UniProt P52333); assay: Kinase panel (Millipore); format: biochemical; details: 1 µM, ATP at Km
T14 construct: purchased Millipore (KinaseProfiler) kinase panel

RSK3 = RSK3 (Homo sapiens, UniProt Q15349); assay: Kinase panel (Millipore); format: biochemical; details: 1 µM, ATP at Km
MER = target: T15, MER (Homo sapiens, UniProt Q12866); assay: Kinase panel (Millipore); format: biochemical; details: 1 µM, ATP at Km
T15 construct: purchased Millipore (KinaseProfiler) kinase panel
T15 sequence (Q12866 21-999): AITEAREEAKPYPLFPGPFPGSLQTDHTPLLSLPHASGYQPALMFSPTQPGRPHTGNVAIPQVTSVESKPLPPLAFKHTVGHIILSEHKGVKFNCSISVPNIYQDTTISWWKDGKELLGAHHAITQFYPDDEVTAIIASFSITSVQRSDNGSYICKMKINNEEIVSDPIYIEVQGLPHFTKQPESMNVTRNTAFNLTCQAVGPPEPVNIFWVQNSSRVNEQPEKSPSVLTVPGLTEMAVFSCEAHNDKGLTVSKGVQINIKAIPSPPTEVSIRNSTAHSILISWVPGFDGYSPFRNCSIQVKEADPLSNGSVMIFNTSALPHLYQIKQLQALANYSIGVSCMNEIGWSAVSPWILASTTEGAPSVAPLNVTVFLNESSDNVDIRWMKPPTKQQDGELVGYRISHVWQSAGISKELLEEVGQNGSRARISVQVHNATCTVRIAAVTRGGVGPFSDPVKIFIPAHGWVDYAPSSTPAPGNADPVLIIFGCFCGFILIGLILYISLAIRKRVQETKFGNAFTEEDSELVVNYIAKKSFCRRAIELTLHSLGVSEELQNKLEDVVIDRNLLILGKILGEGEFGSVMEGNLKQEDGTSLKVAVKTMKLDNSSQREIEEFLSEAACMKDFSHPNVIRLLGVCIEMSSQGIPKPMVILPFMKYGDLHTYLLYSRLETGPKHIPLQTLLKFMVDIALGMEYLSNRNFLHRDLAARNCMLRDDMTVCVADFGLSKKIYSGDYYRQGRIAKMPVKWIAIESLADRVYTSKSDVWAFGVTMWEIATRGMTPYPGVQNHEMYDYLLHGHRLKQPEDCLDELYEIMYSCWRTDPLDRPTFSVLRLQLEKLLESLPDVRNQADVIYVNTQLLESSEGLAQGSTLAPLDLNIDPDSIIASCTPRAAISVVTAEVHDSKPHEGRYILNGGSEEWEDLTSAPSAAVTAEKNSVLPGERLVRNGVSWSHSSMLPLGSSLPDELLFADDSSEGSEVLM

PDK1 = PDK1 (Homo sapiens, UniProt O15530); assay: Kinase panel (Millipore); format: biochemical; details: 1 µM, ATP at Km
CAMKIDELTA = CAMKIDELTA (Homo sapiens, UniProt Q8IU85); assay: Kinase panel (Millipore); format: biochemical; details: 1 µM, ATP at Km
Chain of CAMKIDELTA (Q8IU85 whole entry): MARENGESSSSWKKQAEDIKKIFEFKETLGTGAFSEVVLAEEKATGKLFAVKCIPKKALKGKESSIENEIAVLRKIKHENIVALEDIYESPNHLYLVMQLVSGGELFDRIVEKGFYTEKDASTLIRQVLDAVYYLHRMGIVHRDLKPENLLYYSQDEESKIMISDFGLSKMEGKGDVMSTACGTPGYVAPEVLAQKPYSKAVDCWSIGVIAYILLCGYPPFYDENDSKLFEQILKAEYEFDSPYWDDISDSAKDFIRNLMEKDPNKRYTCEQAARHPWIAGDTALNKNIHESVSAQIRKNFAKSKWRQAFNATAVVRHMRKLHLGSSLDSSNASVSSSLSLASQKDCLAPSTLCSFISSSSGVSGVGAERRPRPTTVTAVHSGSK

PI3K DELTA = PI3K DELTA (Homo sapiens, UniProt O00329); assay: Kinase panel (Millipore); format: biochemical; details: 1 µM, ATP at Km
VRK2 = target: T16, VRK2 (Homo sapiens, UniProt Q86Y07); assay: Kinase panel (Millipore); format: biochemical; details: 1 µM, ATP at Km
T16 construct: purchased Millipore (KinaseProfiler) kinase panel

SGK3 = target: T17, SGK3 (Homo sapiens, UniProt Q96BR1); assay: Kinase panel (Millipore); format: biochemical; details: 1 µM, ATP at Km
T17 construct: purchased Millipore (KinaseProfiler) kinase panel

PKCBETAI = PKCBETAI (Homo sapiens, UniProt P05771); assay: Kinase panel (Millipore); format: biochemical; details: 1 µM, ATP at Km
Chain of PKCBETAI (P05771 whole entry): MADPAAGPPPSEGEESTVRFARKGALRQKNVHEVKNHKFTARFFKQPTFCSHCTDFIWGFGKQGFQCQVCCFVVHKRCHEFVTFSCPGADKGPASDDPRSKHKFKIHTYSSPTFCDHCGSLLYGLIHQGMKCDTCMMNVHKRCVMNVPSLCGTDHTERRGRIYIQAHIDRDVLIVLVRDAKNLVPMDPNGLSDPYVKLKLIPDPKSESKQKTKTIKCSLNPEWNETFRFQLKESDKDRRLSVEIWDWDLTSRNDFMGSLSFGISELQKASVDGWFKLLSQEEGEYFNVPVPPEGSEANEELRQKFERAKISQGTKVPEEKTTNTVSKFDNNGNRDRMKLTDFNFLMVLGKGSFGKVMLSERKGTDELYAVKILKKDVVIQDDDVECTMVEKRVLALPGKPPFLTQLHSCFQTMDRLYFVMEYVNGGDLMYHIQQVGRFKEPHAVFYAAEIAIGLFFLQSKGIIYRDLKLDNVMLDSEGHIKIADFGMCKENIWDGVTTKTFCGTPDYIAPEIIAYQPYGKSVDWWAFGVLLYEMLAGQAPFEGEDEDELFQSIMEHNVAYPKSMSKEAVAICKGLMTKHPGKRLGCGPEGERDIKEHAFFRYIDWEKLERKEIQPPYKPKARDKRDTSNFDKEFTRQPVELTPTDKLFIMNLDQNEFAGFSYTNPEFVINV

PRAK = target: T18, PRAK (Homo sapiens, UniProt Q8IW41); assay: Kinase panel (Millipore); format: biochemical; details: 1 µM, ATP at Km
T18 construct: purchased Millipore (KinaseProfiler) kinase panel

CK1GAMMA3 = CK1GAMMA3 (Homo sapiens, UniProt Q9Y6M4); assay: Kinase panel (Millipore); format: biochemical; details: 1 µM, ATP at Km
CRAF = CRAF (Homo sapiens, UniProt P04049); assay: Kinase panel (Millipore); format: biochemical; details: 1 µM, ATP at Km
RET = target: T19, RET (Homo sapiens, UniProt P07949); assay: Kinase panel (Millipore); format: biochemical; details: 1 µM, ATP at Km
T19 construct: purchased Millipore (KinaseProfiler) kinase panel
T19 sequence (P07949 29-1114): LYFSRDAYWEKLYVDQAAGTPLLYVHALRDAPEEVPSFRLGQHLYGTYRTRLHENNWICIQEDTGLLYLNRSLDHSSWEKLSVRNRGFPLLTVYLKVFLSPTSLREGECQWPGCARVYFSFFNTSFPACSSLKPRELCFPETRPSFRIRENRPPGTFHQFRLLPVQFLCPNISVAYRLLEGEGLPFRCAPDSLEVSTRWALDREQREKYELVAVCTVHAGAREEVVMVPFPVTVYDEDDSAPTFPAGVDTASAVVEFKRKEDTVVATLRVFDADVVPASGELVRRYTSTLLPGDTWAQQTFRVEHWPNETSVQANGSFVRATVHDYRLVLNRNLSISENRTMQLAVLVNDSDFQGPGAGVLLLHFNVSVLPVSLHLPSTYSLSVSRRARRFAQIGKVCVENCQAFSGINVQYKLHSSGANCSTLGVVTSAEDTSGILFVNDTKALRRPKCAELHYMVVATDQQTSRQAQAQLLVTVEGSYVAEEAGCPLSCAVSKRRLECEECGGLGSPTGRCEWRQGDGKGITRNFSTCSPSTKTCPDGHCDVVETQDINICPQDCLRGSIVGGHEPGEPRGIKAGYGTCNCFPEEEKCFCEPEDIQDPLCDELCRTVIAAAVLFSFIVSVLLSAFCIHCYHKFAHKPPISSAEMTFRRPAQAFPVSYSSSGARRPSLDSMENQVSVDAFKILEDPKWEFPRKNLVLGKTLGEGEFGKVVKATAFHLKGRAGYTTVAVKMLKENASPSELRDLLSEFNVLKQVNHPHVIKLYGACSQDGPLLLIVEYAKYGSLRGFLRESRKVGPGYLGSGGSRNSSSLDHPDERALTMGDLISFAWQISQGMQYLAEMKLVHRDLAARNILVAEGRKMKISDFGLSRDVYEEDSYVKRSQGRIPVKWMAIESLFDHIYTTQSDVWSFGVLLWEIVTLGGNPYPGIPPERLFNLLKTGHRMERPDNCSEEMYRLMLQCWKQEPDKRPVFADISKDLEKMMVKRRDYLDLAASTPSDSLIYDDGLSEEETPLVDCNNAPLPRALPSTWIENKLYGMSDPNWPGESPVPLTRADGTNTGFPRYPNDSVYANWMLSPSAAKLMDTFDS

PHKGAMMA2 = PHKGAMMA2 (Homo sapiens, UniProt P15735); assay: Kinase panel (Millipore); format: biochemical; details: 1 µM, ATP at Km
Chain of PHKGAMMA2 (P15735 whole entry): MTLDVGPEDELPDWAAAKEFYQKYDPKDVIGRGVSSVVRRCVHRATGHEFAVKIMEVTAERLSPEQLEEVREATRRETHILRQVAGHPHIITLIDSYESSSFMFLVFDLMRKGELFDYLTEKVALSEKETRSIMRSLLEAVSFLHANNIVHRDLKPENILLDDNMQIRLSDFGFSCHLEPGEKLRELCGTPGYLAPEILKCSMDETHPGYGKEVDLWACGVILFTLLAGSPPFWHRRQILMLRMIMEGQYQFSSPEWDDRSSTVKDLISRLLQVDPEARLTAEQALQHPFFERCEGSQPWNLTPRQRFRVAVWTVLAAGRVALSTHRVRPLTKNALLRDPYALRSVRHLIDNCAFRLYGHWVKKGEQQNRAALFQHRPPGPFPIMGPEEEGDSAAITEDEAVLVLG

RIPK2 = RIPK2 (Homo sapiens, UniProt O43353); assay: Kinase panel (Millipore); format: biochemical; details: 1 µM, ATP at Km
Chain of RIPK2 (O43353 whole entry): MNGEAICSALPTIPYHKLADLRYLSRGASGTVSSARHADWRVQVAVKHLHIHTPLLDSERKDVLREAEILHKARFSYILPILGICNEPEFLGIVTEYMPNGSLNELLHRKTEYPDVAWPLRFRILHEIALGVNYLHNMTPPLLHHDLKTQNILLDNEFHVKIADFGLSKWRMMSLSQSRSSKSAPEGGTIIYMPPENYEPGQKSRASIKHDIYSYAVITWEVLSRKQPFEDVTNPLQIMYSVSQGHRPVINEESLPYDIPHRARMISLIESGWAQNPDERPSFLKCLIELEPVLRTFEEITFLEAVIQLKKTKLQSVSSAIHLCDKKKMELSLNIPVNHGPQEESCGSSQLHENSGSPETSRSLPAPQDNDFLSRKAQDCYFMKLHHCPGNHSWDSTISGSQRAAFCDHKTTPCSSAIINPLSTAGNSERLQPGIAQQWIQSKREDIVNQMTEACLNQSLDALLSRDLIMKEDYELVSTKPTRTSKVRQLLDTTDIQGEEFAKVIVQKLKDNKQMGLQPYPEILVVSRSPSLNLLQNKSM

ULK2 = target: T20, ULK2 (Homo sapiens, UniProt Q8IYT8); assay: Kinase panel (Millipore); format: biochemical; details: 1 µM, ATP at Km
T20 construct: purchased Millipore (KinaseProfiler) kinase panel

TEC ACTIVATED = target: T21, TEC ACTIVATED (Homo sapiens, UniProt P42680); assay: Kinase panel (Millipore); format: biochemical; details: 1 µM, ATP at Km
T21 construct: purchased Millipore (KinaseProfiler) kinase panel

[2] = male, Wistar, rat, in vivo
kainate = details: 10 µM, agonist radioligand
NMDA = details: 10 µM, antagonist radioligand
RY3 (ryanodine) = details: 10 µM, agonist radioligand
CDK5/P25 = CDK5/P25 (Homo sapiens, UniProt Q00535); details: 1 µM, ATP at Km
ABL (M351T) = ABL (M351T) (Homo sapiens, UniProt P00519, M351T); details: 1 µM, ATP at Km
PI3 KINASE (H1047R/P85A) = PI3 KINASE (H1047R/P85A) (Homo sapiens, UniProt P42336, H1047R); details: 1 µM, ATP at Km
alpha 2C (h) = alpha 2C (h) (Homo sapiens, UniProt P18825); assay: biochemical; details: read-out: % Inhibition of Control Specific Binding
In vivo mouse PK = details: female, NMRI, plasma, iv, 0.2 mg/kg

Cn1ncc2cc(-c3cnc(N)c(Cl)c3N3CCC4(CCNC4=O)CC3)ccc21 [Compound 109, 8-(2-Amino-3-chloro-5-(1-methyl-1H-indazol-5-yl)pyridin-4-yl)-2,8-diazaspiro[4.5]decan-1-one]
inhibition at 10 µM (BB3 (h)): -11% | inhibition at 10 µM (ETB (h)): -23% | inhibition at 10 µM (FP (h)): -1% | inhibition at 10 µM [1]: 4% | % effect (EPHA1): 4% | % effect (ALK): 4% | % effect (ALK4): 2% | % effect (AURKA): -16% | % effect (MAPKAP-K2): 1% | % effect (BRSK1): 7% | % effect (MARK1): 17% | % effect (FGFR2): 4% | % effect (MINK): 22% | % effect (MRCKBETA): -35% | % effect (CHK1): -8% | % effect (HIPK2): 2% | % effect (IRR): 5% | % effect (JAK3): 4% | % effect (RSK3): -15% | % effect (MER): 11% | % effect (PDK1): 1% | % effect (CAMKIDELTA): 8% | % effect (PI3K DELTA): 6% | % effect (VRK2): 3% | % effect (SGK3): 13% | % effect (PKCBETAI): -4% | % effect (PRAK): 13% | % effect (CK1GAMMA3): -7% | % effect (CRAF): -10% | % effect (RET): 7% | % effect (PHKGAMMA2): 11% | % effect (RIPK2): 1% | % effect (ULK2): 12% | % effect (TEC ACTIVATED): -1% | LBF [2]: 34% | % Inhibition of Control Specific Binding (kainate): 9% | % Inhibition of Control Specific Binding (NMDA): 0% | % Inhibition of Control Specific Binding (RY3 (ryanodine)): 1% | % effect (CDK5/P25): 13% | % effect (ABL (M351T)): -11% | % effect (PI3 KINASE (H1047R/P85A)): 7% | inhibition at 10 µM (alpha 2C (h)): 25% | Vd (In vivo mouse PK): 0.63 L/kg | clearance (In vivo mouse PK; Cl, 0.2 mg/kg iv): 10.2 mL/min/kg
